Measured values: US11028051B2, “Tetrahydroquinoline-based bromodomain inhibitors” (St. Jude Children's Research Hospital, priority 2016, dated 2021)
Where two headings read alike, the source gives them in different places.

Assays:
BRD2-BD1 [1] = target: T1, BRD2-BD1 (Homo sapiens (Human), UniProt P25440); assay: isothermal titration calorimetry analysis of binding; conditions: ITC, BRD2(1); read-out: KD (ITC)
Description: (§1) b. Isothermal Titration Calorimetry Analysis of Binding to Brd2-BD1 and Brd2-BD2
(§2) Binding of compounds to BRD2 was monitored using an ITC200 (Microcal, Piscataway, N.J.). Either Brd2.1 (74-194) or Brd2.2 (348-455) was dialyzed overnight into a solution containing 50 mM HEPES, pH 7.0 and 150 mM NaCl at 15° C. Enzyme concentrations were determined after dialysis by absorbance at 280 nm using a molar extinction coefficient (ε280) of 25,565 M^−1 cm^−1 (2.1) or 16,055 M^−1 cm^−1 (2.2). Enzyme was diluted in dialysis buffer and 39.6 μL was loaded into the syringe. Compounds were dissolved in the same dialysis buffer and loaded in the cell to a volume of 204 μL. Injections were carried out by serial injections of enzyme; first, 1 injection of 1 μL, followed by 19 incremental injections of 2 μL, at 120 second intervals. Data from the first injection was excluded, due to pre-equilibration mixing between the contents of cell and syringe at the syringe tip. Peak areas were integrated, normalized, and then fitted by non-linear regression using the independent sites model in Origin™ (version 2.3.6, Microcal, Piscataway, N.J.).
Target sequence in this assay (P25440 74-194): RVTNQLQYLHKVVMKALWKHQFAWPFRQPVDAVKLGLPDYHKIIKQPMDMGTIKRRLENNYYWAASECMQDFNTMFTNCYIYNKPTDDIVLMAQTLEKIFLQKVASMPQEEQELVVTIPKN

BRD2-BD2 [2] = target: T2, BRD2-BD2 (Homo sapiens (Human), UniProt P25440); assay: as above; conditions: ITC, BRD2(2); read-out: KD (ITC)
Description: as §1, §2
Target sequence in this assay (P25440 348-455): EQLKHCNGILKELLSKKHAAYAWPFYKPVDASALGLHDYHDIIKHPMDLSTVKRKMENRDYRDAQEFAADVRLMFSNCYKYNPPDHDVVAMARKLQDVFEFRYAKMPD

BRD3(2) = BRD3(2) (Homo sapiens (Human), UniProt Q15059); assay: BROMOscan KD determination; assay type: binding
BRD3(2), sequence (Q15059 306-415): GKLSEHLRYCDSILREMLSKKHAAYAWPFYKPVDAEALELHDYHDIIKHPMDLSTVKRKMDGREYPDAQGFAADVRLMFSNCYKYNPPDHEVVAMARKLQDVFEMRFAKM
Description: (§3) DiscoverX® can screen compounds against all ˜42 bromodomains (a service called BROMOscan) and perform follow-up KD determination. This service is considered the industrial standard for bromodomain inhibitor comparisons.

BRD4(1) = BRD4(1) (Homo sapiens (Human), UniProt O60885); assay: BROMOscan KD determination; assay type: binding; conditions: Table 10
Description: as §3

BRD4(2) = BRD4(2) (Homo sapiens (Human), UniProt O60885); assay: BROMOscan KD determination; assay type: binding
Description: as §3

BRD3(1) = BRD3(1) (Homo sapiens (Human), UniProt Q15059); assay: BROMOscan KD determination; assay type: binding; conditions: Table 10
BRD3(1), sequence (Q15059 34-140): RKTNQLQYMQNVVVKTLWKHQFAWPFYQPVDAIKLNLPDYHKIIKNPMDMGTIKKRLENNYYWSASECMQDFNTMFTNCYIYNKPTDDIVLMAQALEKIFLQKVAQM
Description: as §3

BRD2-BD1 [3] = target: T1, BRD2-BD1; assay: competitive TR-FRET assay, BET-BD with acetylated peptide ligand; assay type: binding; conditions: read-out: EC50 (μM) BRD2(1)
Description: (§4) Inhibitor potency was determined using a competitive TR-FRET assay as detailed herein, measuring interaction of the respective BET-BD with an acetylated peptide ligand (Table 2).
Target sequence in this assay (P25440 74-180): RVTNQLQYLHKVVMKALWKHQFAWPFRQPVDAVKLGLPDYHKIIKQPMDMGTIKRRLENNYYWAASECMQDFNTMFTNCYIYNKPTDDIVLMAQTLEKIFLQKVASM

BRD3-BD1 = BRD3-BD1 (Homo sapiens (Human), UniProt Q15059); assay: as above; assay type: binding
BRD3-BD1, sequence (Q15059 34-140): as the sequence (Q15059 34-140) above
Description: as §4

BRD4-BD1 = BRD4-BD1 (Homo sapiens (Human), UniProt O60885); assay: as above; assay type: binding; conditions: Table 4; read-out: EC50 (μM) BRD4(1)
Description: as §4

BRD4-BD2 = BRD4-BD2 (Homo sapiens (Human), UniProt O60885); assay: as above; assay type: binding
Description: as §4

BRDT = BRDT (Homo sapiens, UniProt Q58F21); assay: as above; assay type: binding
Description: as §4

BRD2-BD2 [4] = target: T2, BRD2-BD2; assay: as above; assay type: binding; conditions: for EC50: read-out: EC50 (μM) BRD2(2)
Description: as §4
Target sequence in this assay (P25440 344-453): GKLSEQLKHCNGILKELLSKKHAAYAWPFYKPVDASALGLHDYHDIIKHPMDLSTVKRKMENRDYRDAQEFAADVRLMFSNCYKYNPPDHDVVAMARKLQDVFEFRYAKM

BRD2(2) = BRD2(2) (Homo sapiens (Human), UniProt P25440); assay: BROMOscan KD determination; assay type: binding
BRD2(2), sequence (P25440 344-453): as above
Method in brief: (§5)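 KD figures derive from BROMOscan follow-up determinations. The panel-wide data are single-concentration (1 μM) competitive binding results versus control across ~42 bromodomains.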

BRDT(1) = BRDT(1) (Homo sapiens (Human), UniProt Q58F21); assay: BROMOscan KD determination; assay type: binding; conditions: Table 10
Method in brief: as §5

BRDT(2) = BRDT(2) (Homo sapiens (Human), UniProt Q58F21); assay: BROMOscan KD determination; assay type: binding
Method in brief: as §5

BRD2(1) = BRD2(1) (Homo sapiens (Human), UniProt P25440); assay: BROMOscan KD determination; assay type: binding; conditions: Table 10
BRD2(1), sequence (P25440 74-180): as the sequence (P25440 74-180) above
Method in brief: as §5

[5] = test system: c-Myc expression in HDMB03 cells; assay: c-Myc expression inhibition, high content microscopy (HCM); assay type: cell-based, human; conditions: Homo sapiens, read-out: EC50 (μM) Myc-inhibition
Description: 3000 human G3 medulloblastoma or 2000 mouse SHH medulloblastoma cells per well were plated into 384-well plates (6007710, Perkin Elmer) in 30 μL of supplemented neurobasal medium using a Wellmate automated dispenser (Thermo Matrix). After 24 hours, 125 nl of compound was transferred via pin tool, resulting in a final drug concentration from 2 nM to 40 μM. 72 hours after adding the drug, the plates were fixed with 4% formaldehyde for 20 min. After fixation the cells were then washed 3 times with 75 μl of PBS. The cells were then permeabilized with 0.1% Triton-X 100 for 15 minutes at 25° C. and blocked using 1% BSA in PBS for 1 hour at 25° C. The primary antibody against c-Myc Ab (#9402, Cell Signaling) at a 1:400 dilution was diluted in 1% BSA in PBS. This mixture was added to each well before incubation overnight at 4° C. Each well was then washed 3 times with PBS using a Biotek ELX405 Select plate washer, and incubated for 1 hour at 25° C. with a solution containing 1/400 goat α-rabbit-Alexa-488 (4412S, Cell Signaling) and 1 μM Hoechst 33342 to detect nuclear material (H3570, Molecular Probes). Two images were captured of each well at 10× using a GE Healthcare InCell 6000 at 405 nM to detect nuclear staining and 488 nM to detect c-Myc. All data were analyzed using the multi-target analysis algorithm of the GE InCell Analyzer Workstation software. The number of nuclear objects in each well, as well as all nuclear measurements, was determined through nuclear masks over the Hoechst staining. C-Myc staining was then measured using top-hat segmentation in the entire cell.

COC(=O)c1ccc(N[C@@H]2C[C@H](C)N(C(C)=O)c3ccc(-c4cccc(NC(C)=O)c4)cc32)cc1 [compound 4]
Kd (BRD2-BD1 [1]): 25 nM
Kd (BRD2-BD2 [2]): < 1 nM
3(1)/3(2) (BRD3(2); BROMOscan KD ratio): 1.8
Kd (BRD3(2); BROMOscan, Table 10): 0.39 nM
Kd (BRD4(1)): 27 nM
4(1)/4(2) (BRD4(2); BROMOscan KD ratio): 64.3
Kd (BRD4(2); BROMOscan, Table 10): 0.42 nM
Kd (BRD3(1)): 0.72 nM
EC50 (BRD2-BD1 [3]; Table 4): 0.43 µM
EC50 (BRD2-BD1 [3]; Table 6): 1.56 µM
EC50 (BRD2-BD1 [3]; Table 8): 1.56 µM
EC50 (BRD3-BD1; Table 4, read-out: BRD3(1)): 1.1 µM
EC50 (BRD3-BD1; Table 6, read-out: EC50 (μM) BRD3(1)): 1.1 µM
EC50 (BRD3-BD1; Table 8, read-out: BRD3(1)): 1.1 µM
EC50 (BRD4-BD1): 0.43 µM
4(1)/4(2) (BRD4-BD2; Table 4, ratio of EC50): 20.5
EC50 (BRD4-BD2; Table 4, read-out: EC50 (μM) BRD4(2)): 0.021 µM
EC50 (BRDT; Table 4, read-out: BRDT EC50): 4000 nM
EC50 (BRDT; Table 6, head names no target, BRDT by comparison with Table 4, read-out: EC50): 4000 nM
EC50 (BRDT; Table 8, head names no target, BRDT by comparison with Table 4, read-out: EC50): 4000 nM
[2(1)/2(2)] (BRD2-BD2 [4]; Table 4, ratio of EC50): 19.5
EC50 (BRD2-BD2 [4]; Table 4): 0.022 µM
[2(1)/2(2)] (BRD2-BD2 [4]; Table 6, ratio of EC50): 14.2
EC50 (BRD2-BD2 [4]; Table 6): 0.11 µM
EC50 (BRD2-BD2 [4]; Table 8): 0.11 µM
[2(1)/2(2)] (BRD2(2); BROMOscan KD ratio): 36.9
Kd (BRD2(2); BROMOscan, Table 10): 0.65 nM
Kd (BRDT(1)): 4.9 nM
T(1)/T(2) (BRDT(2); BROMOscan KD ratio): 1.0
Kd (BRDT(2); BROMOscan, Table 10): 4.9 nM
Kd (BRD2(1)): 24 nM
EC50 ([5]; HD-MB03, Table 5): 0.03 µM
EC50 ([5]; HD-MB03, Table 7): 1.3 µM
EC50 ([5]; HD-MB03, Table 9, c-Myc expression inhibition in HDMB03 cells): 1.3 µM
